The source of these data is US9815842B2, “Pyrazolo pyrimidine derivatives and their use as MALT1 inhibitors” (Novartis AG, priority 2014, dated 2017).

Molecules are shown by their SMILES.

In test [1] the target is C-domain of MALT1 (amino acids 329-824) (Homo sapiens (Human), UniProt Q9UDY8). Description: MALT1 biochemical assay (fluorescence lifetime enzyme activity assay). The conditions noted are these: 60 min pre-incubation, 2.5 nM enzyme, 1 μM peptide substrate.
A further test concerns Human IL2 promoter. Description: Human IL2 promoter reporter gene assay (RGA) in Jurkat cells. The format is cell-based. The conditions noted are these: Jurkat clone K22 290_H23, anti-CD28 mAb + PMA stimulation 5.5 h. The gist of the method: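 Transfected Jurkat clone K22 290_H23 cells were pre-incubated with compounds 30 min at 37 °C, then stimulated 5.5 h with anti-CD28 mAb (15E8, 3 μg/ml) plus PMA (1 μg/ml). IL2-promoter reporter activity was read as BriteLitePlus bioluminescence.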
For orientation: A reporter such as luciferase makes a cellular process visible.

For test [2], the target named is cIAP2-MALT1 fusion protein (Homo sapiens, UniProt Q9UDY8). Description: cell-based.
cIAP2-MALT1 fusion protein, sequence (Q9UDY8 2-824 limits assumed): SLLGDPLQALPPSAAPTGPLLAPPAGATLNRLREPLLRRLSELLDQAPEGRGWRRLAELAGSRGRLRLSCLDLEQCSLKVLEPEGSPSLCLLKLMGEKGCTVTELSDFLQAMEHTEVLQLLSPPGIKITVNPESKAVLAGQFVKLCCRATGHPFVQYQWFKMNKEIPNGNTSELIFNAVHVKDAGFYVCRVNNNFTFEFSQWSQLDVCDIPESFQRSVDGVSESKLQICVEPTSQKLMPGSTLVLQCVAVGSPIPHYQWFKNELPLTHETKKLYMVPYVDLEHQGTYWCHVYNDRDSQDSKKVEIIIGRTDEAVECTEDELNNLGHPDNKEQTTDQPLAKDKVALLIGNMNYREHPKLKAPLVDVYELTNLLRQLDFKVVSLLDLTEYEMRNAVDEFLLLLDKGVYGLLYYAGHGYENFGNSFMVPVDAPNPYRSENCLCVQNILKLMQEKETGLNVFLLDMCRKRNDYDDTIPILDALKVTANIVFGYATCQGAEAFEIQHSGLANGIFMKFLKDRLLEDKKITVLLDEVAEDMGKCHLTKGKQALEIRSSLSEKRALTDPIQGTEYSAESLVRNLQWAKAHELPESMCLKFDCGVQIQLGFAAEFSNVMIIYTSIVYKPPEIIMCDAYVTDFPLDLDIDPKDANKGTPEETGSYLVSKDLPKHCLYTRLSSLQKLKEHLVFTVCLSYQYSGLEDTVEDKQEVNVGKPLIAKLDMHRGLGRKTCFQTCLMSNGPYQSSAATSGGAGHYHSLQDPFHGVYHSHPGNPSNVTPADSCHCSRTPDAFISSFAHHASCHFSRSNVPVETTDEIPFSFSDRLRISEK
Procedure: For the measurement of compound inhibition, 0.25 μl of test compound were mixed with 12.5 μl of enzyme in wells of the 384-well plates, and incubated for 60 minutes at room temperature (22° C.). After that, 12.5 μl of substrate was added, and the enzymatic reaction was allowed to proceed for 60 minutes at room temperature (22° C.). […] The DMSO content was between 0.9 and 1% (v/v). […] The IC50 value was calculated from the plot of percentage inhibition versus inhibitor concentration using non-linear regression analysis software (Origin, OriginLab Corporation, USA). The data were fitted using a 4 Parameter Logistic Model, characterized by the following equation: y=A2+(A1−A2)/(1+(x/IC50)^p) where y is the %-inhibition at the inhibitor concentration, x. A1 is the lowest inhibition value, and A2 the maximum inhibition value.

C-domain of MALT1 (amino acids 329-824), sequence (Q9UDY8 329-824): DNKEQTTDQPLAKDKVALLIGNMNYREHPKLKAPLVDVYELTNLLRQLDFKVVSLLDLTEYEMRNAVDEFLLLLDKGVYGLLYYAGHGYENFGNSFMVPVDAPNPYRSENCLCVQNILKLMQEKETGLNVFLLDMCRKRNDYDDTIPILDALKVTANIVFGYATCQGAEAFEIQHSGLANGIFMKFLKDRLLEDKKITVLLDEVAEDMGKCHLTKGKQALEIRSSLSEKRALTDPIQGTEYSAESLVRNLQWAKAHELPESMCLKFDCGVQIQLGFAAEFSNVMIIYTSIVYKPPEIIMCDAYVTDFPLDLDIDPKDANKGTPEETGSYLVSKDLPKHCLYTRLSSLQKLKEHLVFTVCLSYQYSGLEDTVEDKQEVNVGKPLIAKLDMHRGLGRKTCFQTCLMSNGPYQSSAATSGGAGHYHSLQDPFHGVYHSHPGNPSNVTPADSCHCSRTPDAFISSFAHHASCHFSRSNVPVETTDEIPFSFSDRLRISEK

In general, IC50 refers to the concentration that gives 50% inhibition. For `COc1ncc(NC(=O)Nc2cnc3cc(Cl)nn3c2C(C)C)cc1Cl` [Example 18, 1-(5-chloro-6-methoxypyridin-3-yl)-3-(2-chloro-7-isopropylpyrazolo[1,5-a]pyrimidin-6-yl)urea], the IC50 worked out at 3 nM in test [1], 207 nM in the test with Human IL2 promoter and 149 nM in test [2].
The like results for `COCC1(c2c(NC(=O)Nc3ccnc(C(F)(F)F)c3)cnc3cc(C)nn23)CC1` [Example 79, 1-(7-(1-(methoxymethyl)cyclopropyl)-2-methylpyrazolo[1,5-a]pyrimidin-6-yl)-3-(2-(trifluoromethyl)pyridin-4-yl)urea] were, in that order, 45 nM, 206 nM and 408 nM.
On to `CC(C)c1c(NC(=O)Nc2cncc(Br)c2)cnc2cc(Cl)nn12` [Example 26, 1-(5-bromopyridin-3-yl)-3-(2-chloro-7-isopropylpyrazolo[1,5-a]pyrimidin-6-yl)urea], for which the half-inhibitory concentration (IC50) in test [1] was determined as 5 nM; with Human IL2 promoter, 134 nM; in test [2], 85 nM.
In the case of `COCC(OC)c1c(NC(=O)Nc2cnc(-n3nccn3)c(Cl)c2)cnc2cc(Cl)nn12` (stereo not drawn) [Example 56, 1-(5-chloro-6-(2H-1,2,3-triazol-2-yl)pyridin-3-yl)-3-(2-chloro-7-(1,2-dimethoxyethyl)pyrazolo[1,5-a]pyrimidin-6-yl)urea], the half-maximal inhibitory concentration (IC50) is 5 nM in test [1], 95 nM in the test on Human IL2 promoter and 131 nM in test [2].
For `COCC(C)(OC)c1c(NC(=O)Nc2cnc(-n3nccn3)c(Cl)c2)cnc2cc(Cl)nn12` (stereo not drawn) [Example 81, 1-(5-chloro-6-(2H-1,2,3-triazol-2-yl)pyridin-3-yl)-3-(2-chloro-7-(1,2-dimethoxypropan-2-y)pyrazolo[1,5-a]pyrimidin-6-yl)urea] the same measures were 5 nM, 63 nM and 95 nM.
Turning to `COc1ncc(NC(=O)Nc2cnc3cc(C)nn3c2C2(C)CC2)cc1Cl` [Example 73, 1-(5-chloro-6-methoxypyridin-3-yl)-3-(2-methyl-7-(1-methylcyclopropyl)pyrazolo[1,5-a]pyrimidin-6-yl)urea], the IC50 in test [1] was 12 nM; with Human IL2 promoter it was 91 nM; in test [2], 163 nM.
The like results for `CO[C@H](c1c(NC(=O)Nc2cnc(-n3nccn3)c(Cl)c2)cnc2cc(Cl)nn12)C(C)C` [Example 74, (S)-1-(5-chloro-6-(2H-1,2,3-triazol-2-yl)pyridin-3-yl)-3-(2-chloro-7-(1-methoxy-2-methylpropyl)pyrazolo[1,5-a]pyrimidin-6-yl)urea] were, in that order, 2 nM, 32 nM and 30 nM.
As to `CC(C)c1c(NC(=O)Nc2cnc(-n3cc(CN)cn3)c(Cl)c2)cnc2cc(Cl)nn12` [Example 118, 1-(6-(4-(aminomethyl)-1H-pyrazol-1-yl)-5-chloropyridin-3-yl)-3-(2-chloro-7-isopropylpyrazolo[1,5-a]pyrimidin-6-yl)urea], the IC50 was 28 nM in test [1], 112 nM in the test with Human IL2 promoter and 256 nM in test [2].
`CC(C)c1c(NC(=O)Nc2cc(Cl)c(-n3nccn3)c(Cl)c2)cnc2cc(Cl)nn12` [Example 30, 1-(2-chloro-7-isopropylpyrazolo[1,5-a]pyrimidin-6-yl)-3-(3,5-dichloro-4-(2H-1,2,3-triazol-2-yl)phenyl)urea]: the IC50 in test [1] was 3 nM; in the test with Human IL2 promoter, 507 nM; in test [2] it was 382 nM.
For `O=C(Nc1cnc(-n2nccn2)c(Cl)c1)Nc1cnc2cc(Cl)nn2c1C1CCC1` [Example 38, 1-(5-chloro-6-(2H-1,2,3-triazol-2-yl)pyridin-3-yl)-3-(2-chloro-7-cyclobutylpyrazolo[1,5-a]pyrimidin-6-yl)urea] the same measures were 5 nM, 145 nM and 176 nM.
Regarding `COC(c1c(NC(=O)Nc2ccnc(C(F)(F)F)c2)cnc2cc(Cl)nn12)C1CCOCC1` (stereo not drawn) [Example 90, 1-(2-chloro-7-(methoxy(tetrahydro-2H-pyran-4-yl)methyl)pyrazolo[1,5-a]pyrimidin-6-yl)-3-(2-(trifluoromethyl)pyridin-4-yl)urea], the IC50 was 97 nM in test [1], 927 nM in the test with Human IL2 promoter and 696 nM in test [2].
The like results for `CN(C)C1(c2c(NC(=O)Nc3cnc(-n4nccn4)c(Cl)c3)cnc3cc(Cl)nn23)CC1` [Example 88, 1-(5-chloro-6-(2H-1,2,3-triazol-2-yl)pyridin-3-yl)-3-(2-chloro-7-(1-(dimethylamino)cyclopropyl)pyrazolo[1,5-a]pyrimidin-6-yl)urea] were, in that order, 14 nM, 47 nM and 102 nM.
For `Cc1cc2ncc(NC(=O)Nc3cnc(-n4nccn4)c(Cl)c3)c(C3(C)CC3)n2n1` [Example 72, 1-(5-chloro-6-(2H-1,2,3-triazol-2-yl)pyridin-3-yl)-3-(2-methyl-7-(1-methylcyclopropyl)pyrazolo[1,5-a]pyrimidin-6-yl)urea] the same measures were 3 nM, 140 nM and 179 nM.
With `Cc1ncn(-c2ccc(NC(=O)Nc3cnc4cc(Cl)nn4c3C(C)C)cc2C#N)n1` [Example 19, 1-(2-chloro-7-isopropylpyrazolo[1,5-a]pyrimidin-6-yl)-3-(3-cyano-4-(3-methyl-1H-1,2,4-triazol-1-yl)phenyl)urea], the figures for the IC50 (in test [1]; with Human IL2 promoter; in test [2]) were 3 nM, 149 nM and 91 nM, respectively.
For `COC[C@H](OC)c1c(NC(=O)Nc2cnc(-n3nccn3)c(Cl)c2)cnc2cc(Cl)nn12` [Example 126, (R)-1-(5-chloro-6-(2H-1,2,3-triazol-2-yl)pyridin-3-yl)-3-(2-chloro-7-(1,2-dimethoxyethyl)pyrazolo[1,5-a]pyrimidin-6-yl)urea] the same measures were 5 nM, 58 nM and 119 nM.
Turning to `Cc1c(NC(=O)Nc2cnc(-n3nccn3)c(Cl)c2)cnc2cc(Cl)nn12` [Example 62, 1-(5-chloro-6-(2H-1,2,3-triazol-2-yl)pyridin-3-yl)-3-(2-chloro-7-methylpyrazolo[1,5-a]pyrimidin-6-yl)urea], the IC50 in test [1] came to 42 nM; in the test on Human IL2 promoter it was 266 nM; in test [2] it was 345 nM.
`COC(C)(C)c1c(NC(=O)Nc2cnc(-n3nccn3)c(Cl)c2)cnc2cc(Cl)nn12` [Example 14, 1-(5-chloro-6-(2H-1,2,3-triazol-2-yl)pyridin-3-yl)-3-(2-chloro-7-(2-methoxypropan-2-yl)pyrazolo[1,5-a]pyrimidin-6-yl)urea]: the values for the IC50 (in test [1]; in the test on Human IL2 promoter; in test [2]) were 3 nM, 67 nM and 49 nM, respectively.
For `CC(C)c1c(NC(=O)Nc2cc(Cl)c(=O)n(C)c2-n2cccn2)cnc2cc(Cl)nn12` [Example 24, 1-(5-chloro-1-methyl-6-oxo-2-(1H-pyrazol-1-yl)-1,6-dihydropyridin-3-yl)-3-(2-chloro-7-isopropylpyrazolo[1,5-a]pyrimidin-6-yl)urea], the half-maximal inhibitory concentration (IC50) came out at 5 nM in test [1], 214 nM in the test with Human IL2 promoter and 131 nM in test [2].
The like results for `COCC1(c2c(NC(=O)Nc3cnc(-n4nccn4)c(Cl)c3)cnc3cc(C)nn23)CC1` [Example 78, 1-(5-chloro-6-(2H-1,2,3-triazol-2-yl)pyridin-3-yl)-3-(7-(1-(methoxymethyl)cyclopropyl)-2-methylpyrazolo[1,5-a]pyrimidin-6-yl)urea] were, in that order, 21 nM, 76 nM and 159 nM.
The like results for `CO[C@H](c1c(NC(=O)Nc2ccnc(C(F)(F)F)c2)cnc2cc(Cl)nn12)C(C)C` [Example 75, (S)-1-(2-chloro-7-(1-methoxy-2-methylpropyl)pyrazolo[1,5-a]pyrimidin-6-yl)-3-(2-(trifluoromethyl)pyridin-4-yl)urea] were, in that order, 5 nM, 72 nM and 100 nM.
For `COCCO[C@@H](C)c1c(NC(=O)Nc2cnc(OC)c(Cl)c2)cnc2cc(Cl)nn12` [Example 40, (S)-1-(5-chloro-6-methoxypyridin-3-yl)-3-(2-chloro-7-(1-(2-methoxyethoxy)ethyl)pyrazolo[1,5-a]pyrimidin-6-yl)urea] the same measures were 6 nM, 43 nM and 112 nM.
For `CC(C)c1c(NC(=O)Nc2cnc(N3CCCS3(=O)=O)c(C(F)(F)F)c2)cnc2cc(Cl)nn12` [Example 27, 1-(2-chloro-7-isopropylpyrazolo[1,5-a]pyrimidin-6-yl)-3-(6-(1,1-dioxidoisothiazolidin-2-yl)-5-(trifluoromethyl)pyridin-3-yl)urea], the IC50 was 6 nM in test [1], 248 nM in the test on Human IL2 promoter and 54 nM in test [2].
Consider `Cc1cnn(-c2ncc(NC(=O)Nc3cnc4cc(Cl)nn4c3C(C)C)cc2Cl)n1` [Example 22, 1-(5-chloro-6-(4-methyl-2H-1,2,3-triazol-2-yl)pyridin-3-yl)-3-(2-chloro-7-isopropylpyrazolo[1,5-a]pyrimidin-6-yl)urea], for which the results for the IC50 (in test [1]; in the test with Human IL2 promoter; in test [2]) were 4 nM, 100 nM and 74 nM, respectively.
For `CC(C)c1c(NC(=O)Nc2ccc(-n3nccn3)c(Cl)c2)cnc2cc(Cl)nn12` [Example 20, 1-(3-chloro-4-(2H-1,2,3-triazol-2-yl)phenyl)-3-(2-chloro-7-isopropylpyrazolo[1,5-a]pyrimidin-6-yl)urea] the same measures were 3 nM, 245 nM and 99 nM.
The like results for `COCC1(c2c(NC(=O)Nc3cnc(-n4nccn4)c(Cl)c3)cnc3cc(Cl)nn23)CCCO1` (stereo not drawn) [Example 91, 1-(5-chloro-6-(2H-1,2,3-triazol-2-yl)pyridin-3-yl)-3-(2-chloro-7-(2-(methoxymethyl)tetrahydrofuran-2-yl)pyrazolo[1,5-a]pyrimidin-6-yl)urea] were, in that order, 2 nM, 89 nM and 105 nM.
